Experimental data taken from patent US4605670A, “Method for percutaneously administering metoclopramide” (priority 1984, dated 1986).
Where a name gives a salt, the structure may show the parent alone.

Assay type: in vitro ADME, male albino rats
Source text: Rat full thickness skins were used in the diffusion cell method of Michaels, AlChE Journal, 21 [5], 985-996, (1975). The rat skin was mounted in the diffusion cell in a vertical position between the upstream and the downstream compartments; the exposed area of the skin approximated 4.15 cm^2.
The skin was excised from the shaved abdominal site of male albino rats weighing 250~300 g, and washed with normal saline solution after the subcutaneous fat was carefully removed with scissors.
An MCP solution of known concentration was added to the upper compartment of the cell, which was exposed to the epithelial side of the skin and a normal saline solution was placed in the lower compartment.
The penetration rate was studied in a thermostated bath at 30° C. At appropriate intervals samples were withdrawn from the lower compartment and subsequently analyzed for MCP concentration by standard analytical methods. This regimen was used in Examples 1 to 10.
Unless otherwise indicated, in all of the examples, the active agent was MCP.HCl, the MCP.HCl flux is given in terms of ug/cm^2 /8hrs, 25 volume percent of the adjuvant with respect to the adjuvant plus solvent volume was used in combination with 2.5 weight percent of active agent based on the weight of the adjuvant plus solvent; otherwise, all percents are volume percents based on adjuvant, solvent or adjuvant plus solvent volume, depending on the system.
Compositions were typically prepared by merely mixing the adjuvant and solvent together, then mixing the MCP.HCl in the mixture and then, if used, mixing the diol therein. The order of mixing is not important.

## CCN(CC)CCNC(=O)c1cc(Cl)c(N)cc1OC [MCP HCl, metoclopramide.HCl, reference compound]
  MCP HCl flux with increasing MCP HCl concentration: Flux increases linearly with increasing drug concentration

## Hydroxy ethyl cellulose
  MCP.HCl Flux: 1296 ug/cm^2 /8 hrs

## Hydroxy propyl cellulose
  MCP.HCl Flux: 843 ug/cm^2 /8 hrs
